# Reference: patent US4960770A, “2-alkyl thieno(triazolo)diazepine compounds and pharmaceutical uses thereof” (Yoshitomi Pharmaceutical Industries, Ltd., priority 1987, dated 1990)
# Where two headings read alike, the source gives them in different places.
# How the values were obtained:
# [1] = test system: PAF-induced platelet aggregation; assay: Inhibitory effect on platelet aggregation in rabbits (in vitro test); format: cell-based; details: Oryctolagus cuniculus, rabbit PRP, PAF 1.8×10^-7 M, 37° C., read-out: Inhibition of PAF-induced platelet aggregation, IC50
# Procedure: (§1) Blood samples to which was added 0.1 volume of 3.8% sodium citrate were collected from rabbits. Platelet rich plasma (PRP) was prepared by centrifuging the blood sample at 200 x g for 10 minutes, and platelet poor plasma (PPP) was prepared by centrifuging the remaining blood sample at 1000 x g for 10 minutes.
# (§2) Aggregation ability was measured with a turbidimetric device (6-channel NKK Hematracer 1, model PAT-6A) according to the method of G.V.R. Born described in J. Physiology, vol. 168, p. 178 (1963). The aggregometer was adjusted in sensitivity to give light transmission values of 0 and 100% for PRP and PPP, respectively. With stirring at 1000 rpm, 0.3 μl of test compound solution or vehicle was added to 0.3 ml of PRP. After the mixture was kept at 37° C. for 2 minutes, to the mixture was added 3 μl of synthesized platelet activating factor at the final concentration of 1.8×10^-7 M and the light transmission was recorded for 5 minutes.
# (§3) The inhibition percentage of test compounds on platelet aggregation were calculated from the following formula by measuring the maximal light transmission in the presence and absence of the test compounds. [formula]
# [2] = test system: coronary artery blood flow; assay: Effect on coronary flow (coronary artery blood flow in anesthetized dogs); format: in vivo, mongrel dogs; details: relative to flow increase at 3 μg nifedipine
# Procedure: Adult mongrel dogs were anesthetized with sodium pentobarbital (30 mg/kg, i.v.). According to the method of Yago et al described in Folia Pharmacologica Japonica, vol. 57, p. 380 (1961), the left coronary artery was perfused and its blood flow was measured. Test compound was injected into the coronary artery at a volume of 10-30 μl. To determine the effect of the test compound on coronary artery blood flow, an increase percentage of blood flow at each dosage was calculated based on the increase of the blood flow at a dosage of 3 μg of nifedipine.
# PAF-induced lethal shock = assay: Effect of PAF-induced lethal shock in mice; format: in vivo, male ICR mice; details: 1 hour before PAF 80 μg/kg i.v., 24 hours
# Procedure: The experiment was carried out according to the method of Young et al. described in Prostaglandins, vol. 30, p. […] Groups of 9 to 15 male ICR mice (Charles River) weighing 25-30 g were used. 80 μg/kg of PAF (Serdary Research Labo.) solution was intravenously administered in a lateral tail vein 1 hour after the oral administration of test compound (0.1 ml/10 g). […] Results were given as number of survivors/number of employed animals and survival rates (%) in Table 4.
# [3] = target: T1, calmodulin (bovine encephalon) (Bos taurus, UniProt P62157); assay: Calmodulin inhibitory action (NPN fluorescence probe method); format: biochemical
# T1 construct: calmodulin (bovine encephalon); from tissue; host or cells: bovine encephalon (brain)
# Procedure: Calmodulin inhibitory action was measured according to the modified method of Epstein et al. described in Biochemical and Biophysical Research Communications, Vol. 105, p. 1142 (1982). Briefly, to 25 mM Tris-HCl buffer solution (pH 7.0) were added as a final concentration 1 mM calcium chloride, 5 μM N-phenyl-1-naphthylamine (NPN), 1000 units of calmodulin (bovine encephalon) and each of test compound to give 3 ml of final solution volume. The solution was allowed to stand at room temperature for 1 hour and the fluorescence intensity was measured by a fluorescene photometer (ex. 350 nm, em. 440 nm). A blank was prepared by adding water instead of calmodulin. Each of test compound was dissolved in dimethyl sulfoxide or 2.5% dimethyl sulfoxide solution and the final concentration of dimethyl sulfoxide was adjusted to 0.25%.
# [4] = target: calcium/calmodulin dependent phosphodiesterase; assay: Effect on calcium/calmodulin dependent phosphodiesterase; format: biochemical; details: [3H]-cAMP, pH 8.0, 37° C., 20 minutes; read-out: Inhibitory action on calcium/calmodulin dependent phosphodiesterase IC50
# Procedure: The experiment was carried out according to the method of Thompson et al. described in Advances in Cyclic Nucleotide Research, Vol. 10, p. 69 (1979). Briefly, the solution of which final volume was 200μl was prepared by mixing 40 μl of 200 mM Tris-HCl buffer solution (pH 8.0), containing 25 mM magnesium chloride and 0.5 mM ethyleneglycol-bis(β-aminoethylether)-N,N '-tetra acetic acid (EGTA), 20 μof 10μM [^3 H]-cAMP (250 nCi), test compound and a solution of calcium/calmodulin dependent phosphodiesterase (PDE) enzyme. The test compound was dissolved in dimethyl sulfoxide to give 1% of final concentration. The incubation was performed at 37° C. for 20 minutes and then stopped by heating for 1 minutes in a boiling water bath. The resulting 5'-AMP was converted into adenosine by adding 50 μl of snake venom (1 mg/ml) and incubating at 30° C. for 10 minutes. Then, to the solution was added 500 μl of AGI-X8 (methanol:resin=3:2) and the mixture was allowed to stand under ice-cooling for 15 minutes with occasional shaking to adsorb the unreacted cAMP. After centrifuging, the radioactivity of the supernatant was measured by a liquid scintillation counter.
# The action of the test compound on PDE activity was studied by calculating the inhibition percentage in the absence of calcium/calmodulin from the following formula, and represented as IC50 value. [formula] a: PDE activity in the presence of test compound and in the absence of calmodulin
# b: PDE activity in the absence of test compound and calmoduline
# vertebral blood flow = assay: Effect of vertebral blood flow (anesthetized dogs); format: in vivo, mongrel dogs; details: Canis lupus familiaris; dose required to obtain 100% of the flow increase by intraartery 3 μg/kg nifedipine
# Procedure: Adult mongrel dogs were anesthetized with sodium pentobarbital (30 mg/kg. i.v.) and the blood flow of the left vertebral artery was measured.
# [5] = test system: PAF-induced platelet aggregation; assay: Inhibitory effect on platelet aggregation in rabbits (ex vivo test); details: 10 mg/kg p.o.; for inhibition at 10 mg/kg: Oryctolagus cuniculus, Platelet, po, read-out: % of inhibition after administration
# Procedure: as §1, §2, §3
# Test compound was orally administered to a group of three rabbits instead of adding it to PRP as in vitro test of Experiment 2, and then the citrated blood samples (1 volume of 3.8% sodium citrate +9 volumes of blood) were collected with the passage of time. Then, the blood samples were employed to determine the inhibitory effect according to Experiment 2.
# [6] = dosage 30 μg into coronary artery
# [7] = dosage 100 μg into coronary artery
# [8] = dosage 300 μg into coronary artery
compound,measurement,setting,value
"CCCCCCCCCCc1cc2c(s1)-n1c(C)nnc1CN=C2c1ccccc1Cl [Example 72, 4-(2-chlorophenyl)-2-decyl-9-methyl 6H-thieno[3,2-f][1,2,4]triazolo[4,3-a][1,4]-diazepine]",IC50,[1],0.03 to 0.1 µg/mL
"CCCCCCc1cc2c(s1)-n1c(C)nnc1C(C)N=C2c1ccccc1C (stereo not shown) [Example 68, 2-hexyl-4-(2-methylphenyl)-6,9-dimethyl 6H-thieno[3,2-f][1,2,4]triazolo[4,3-a][1,4]diazepine]",Effect on coronary blood flow,[2]; [6],33%
same,Effect on coronary blood flow,[2]; [7],63%
same,Effect on coronary blood flow,[2]; [8],100%
same,Number of Survivors/Number of Animals,PAF-induced lethal shock; 0.1 mg/kg p.o.,5/6
same,Survival rate,PAF-induced lethal shock; 0.1 mg/kg p.o.,83.3%
same,Number of Survivors/Number of Animals,PAF-induced lethal shock; 0.3 mg/kg p.o.,6/7
same,Survival rate,PAF-induced lethal shock; 0.3 mg/kg p.o.,85.7%
same,Number of Survivors/Number of Animals,PAF-induced lethal shock; 1 mg/kg p.o.,6/7
same,Survival rate,PAF-induced lethal shock; 1 mg/kg p.o.,85.7%
same,IC50,[3],1100 nM
"CCCCCCCCc1cc2c(s1)-n1c(C)nnc1CN=C2c1ccccc1Cl [Example 57, 4-(2-chlorophenyl)-2-octyl-9-methyl-6H-thieno[3,2-f][1,2,4]triazolo[4,3-a][1,4]diazepine]",IC50,[4],11 µM
same,IC50,[1],0.01 to 0.1 µg/mL
"CCOC(=O)C1=C[C@]2(CC)CCCN3CCc4c(n1c1ccccc41)[C@@H]32 [vinpocetine, reference compound]",IC50,[4],88 µM
"CCCCCCCCCCCCc1cc2c(s1)-n1c(C)nnc1CN=C2c1ccccc1Cl [Example 73, 4-(2-chlorophenyl)-2-dodecyl-9-methyl-6H-thieno[3,2-f][1,2,4]triazolo[4,3-a][1,4]-diazepine]",IC50,[1],0.3 to 1 µg/mL
"CCCCCCc1cc2c(s1)-n1c(C)nnc1CN=C2c1cc(OC)c(OC)c(OC)c1 [Example 67, 2-hexyl-4-(3,4,5-trimethoxyphenyl)-9-methyl-6H-thieno[3,2-f][1,2,4]triazolo[4,3-a][1,4]diazepine]",Effect on coronary blood flow,[2]; [6],43%
same,Effect on coronary blood flow,[2]; [7],86%
same,Effect on coronary blood flow,[2]; [8],114%
same,ED100,vertebral blood flow,0.078 mg/kg
same,IC50,[4],7 µM
"CCCCCCCCCCc1cc2c(s1)-n1c(C)nnc1CN=C2c1ccccc1OC [Example 69, 2-decyl-4-(2-methoxyphenyl)-9-methyl-6H-thieno[3,2-f][1,2,4]triazolo[4,3-a][1,4]diazepine]",IC50,[1],0.3 to 1 µg/mL
"CCCCCCc1cc2c(s1)-n1c(C)nnc1CN=C2c1ccc(C)cc1 [Example 61, 2-hexyl-4-(4-methylphenyl)-9-methyl-6H-thieno[3,2-f][1,2,4]triazolo[4,3-a][1,4]diazepine]",Effect on coronary blood flow,[2]; [6],55%
same,Effect on coronary blood flow,[2]; [7],69%
same,Effect on coronary blood flow,[2]; [8],103%
same,Number of Survivors/Number of Animals,PAF-induced lethal shock; 1 mg/kg p.o.,6/8
same,Survival rate,PAF-induced lethal shock; 1 mg/kg p.o.,75%
same,Number of Survivors/Number of Animals,PAF-induced lethal shock; 3 mg/kg p.o.,8/8
same,Survival rate,PAF-induced lethal shock; 3 mg/kg p.o.,100%
"CCCCCCc1cc2c(s1)-n1c(C)nnc1CN=C2c1ccccc1OC [Example 55, 2-hexyl-4-(2-methoxyphenyl)-9-methyl-6H-thieno[3,2-f][1,2,4]triazolo[4,3-a][1,4]diazepine]",IC50,[1],0.03 to 0.1 µg/mL
"CCCCCCc1cc2c(s1)-n1c(C)nnc1C(C)N=C2c1ccccc1Cl (stereo not shown) [Example 74, 4-(2-chlorophenyl)-2-hexyl-6,9-dimethyl-6H-thieno[3,2-f][1,2,4]triazolo[4,3-a][1,4]diazepine]",Effect on coronary blood flow,[2]; [6],16%
same,Effect on coronary blood flow,[2]; [7],57%
same,Effect on coronary blood flow,[2]; [8],86%
same,Number of Survivors/Number of Animals,PAF-induced lethal shock; 0.1 mg/kg p.o.,5/6
same,Survival rate,PAF-induced lethal shock; 0.1 mg/kg p.o.,83.3%
same,Number of Survivors/Number of Animals,PAF-induced lethal shock; 1 mg/kg p.o.,7/7
same,Survival rate,PAF-induced lethal shock; 1 mg/kg p.o.,100%
same,IC50,[3],1200 nM
"CCCCCCc1cc2c(s1)-n1c(C)nnc1CN=C2c1cccc(C)c1 [Example 62, 2-hexyl-4-(3-methylphenyl)-9-methyl-6H-thieno[3,2-f][1,2,4]triazolo[4,3-a][1,4]diazepine]",IC50,[4],11 µM
same,Number of Survivors/Number of Animals,PAF-induced lethal shock; 3 mg/kg p.o.,6/8
same,Survival rate,PAF-induced lethal shock; 3 mg/kg p.o.,75%
"CCCCCCc1cc2c(s1)-n1c(C)nnc1CN=C2c1ccccc1Cl [Example 54, 4-(2-chlorophenyl)-2-hexyl-9-methyl-6H-thieno[3,2-f][1,2,4]triazolo[4,3-a][1,4]diazepine]",inhibition at 10 mg/kg,[5]; 1 hour,100%
same,inhibition at 10 mg/kg,[5]; 3 hours,100%
same,inhibition at 10 mg/kg,[5]; 6 hours,85%
same,Number of Survivors/Number of Animals,PAF-induced lethal shock; 0.3 mg/kg p.o.,3/10
same,Survival rate,PAF-induced lethal shock; 0.3 mg/kg p.o.,30%
same,Number of Survivors/Number of Animals,PAF-induced lethal shock; 3 mg/kg p.o.,10/10
same,Survival rate,PAF-induced lethal shock; 3 mg/kg p.o.,100%
same,IC50,[1],0.03 to 0.1 µg/mL
"CCCCCCc1cc2c(s1)-n1c(C)nnc1CN=C2c1cc(C)ccc1C [Example 65, 2-hexyl-4-(2,5-dimethylphenyl)-9-methyl-6H-thieno[3,2-f][1,2,4]triazolo[4,3-a][1,4]diazepine]",ED100,vertebral blood flow,0.099 mg/kg
same,IC50,[4],20 µM
"CCCCCCc1cc2c(s1)-n1c(C)nnc1CN=C2c1ccccc1C [Example 58, 2-hexyl-4-(2-methylphenyl)-9-methyl-6H-thieno[3,2-f][1,2,4]triazolo[4,3-a][1,4]diazepine]",Effect on coronary blood flow,[2]; [6],63%
same,Effect on coronary blood flow,[2]; [7],107%
same,Effect on coronary blood flow,[2]; [8],136%
"CCc1cc2c(s1)-n1c(C)nnc1CN=C2c1ccccc1Cl [Etizolam, 6-(o-chlorophenyl)-8-ethyl-1-methyl-4H-s-triazolo[3,4-c]thieno[2,3-e][1,4]diazepine, reference compound]",% of inhibition at each time after administration (in words),"[5]; one entry for 1, 3 and 6 hours",no effect
same,IC50,[1],1.3 µg/mL
